For the assay, the system named is P388 leukemia ip, CD2F1 mice, survival T/C. As to the kind of experiment: NCI In Vivo Anticancer Drug Screen. Data for tumor model P388 Leukemia (intraperitoneal) in CD2F1 (CDF1) mice. To be noted: endpoint: median survival time, higher = longer survival. A digest of the protocol:
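Mice carrying the transplanted tumor received test compound or vehicle. Survival was recorded in each group, and the value is the treated-group measurement divided by that of the vehicle-treated control group.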

The mark [1] stands for this setting: dose: 50.0 mg/kg/injection, schedule: Q01DX005 (ip), vehicle: saline with Tween-80.
The mark [2] stands for this setting: dose: 100.0 mg/kg/injection, schedule: Q01DX005 (ip), vehicle: saline with Tween-80.
Setting [3] is: dose: 200.0 mg/kg/injection, schedule: Q01DX005 (ip), vehicle: saline with Tween-80.
Where [4] appears, read: dose: 6.25 mg/kg/injection, schedule: Q01DX009 (ip), vehicle: Klucel (hydroxypropylcellulose) (HPC).
[5] abbreviates: dose: 12.5 mg/kg/injection, schedule: Q01DX009 (ip), vehicle: Klucel (hydroxypropylcellulose) (HPC).
Where [6] appears, read: dose: 25.0 mg/kg/injection, schedule: Q01DX009 (ip), vehicle: Klucel (hydroxypropylcellulose) (HPC).
[7] abbreviates: dose: 60.0 mg/kg/injection, schedule: Q01DX005 (ip), vehicle: saline with Tween-80.
Setting [8] is: dose: 120.0 mg/kg/injection, schedule: Q01DX005 (ip), vehicle: saline with Tween-80.
Where [9] appears, read: dose: 240.0 mg/kg/injection, schedule: Q01DX005 (ip), vehicle: saline with Tween-80.

The source of these data is PubChem BioAssay AID330 (DTP/NCI, 2004).

The structures appear in SMILES notation. Several values for one entry are separate records, joined by “and”; a condition that tells them apart may be missing. Equal values may be shown once. Toxic doses and inconclusive results are not listed.

Regarding `COC(=O)C1=C(C(=O)OC)[C]([Hg][CH3])(C(C)=O)N=N1` (stereo not drawn), the T/C is 88 % of control (dose: 1.56 mg/kg/injection, schedule: Q01DX009 (ip), vehicle: saline); 88 % of control (dose: 3.12 mg/kg/injection, schedule: Q01DX009 (ip), vehicle: saline); 93 % of control (dose: 6.25 mg/kg/injection, schedule: Q01DX009 (ip), vehicle: saline); 106 % of control (dose: 12.5 mg/kg/injection, schedule: Q01DX009 (ip), vehicle: saline).

Regarding `COC(=N)CCNC(=O)C(O)C(O)C(=O)NCCC(=N)OC` (stereo not drawn), the T/C reads like this: (dose: 50.0 mg/kg/injection, schedule: Q01DX009 (ip), vehicle: saline) 102 % of control; (dose: 100.0 mg/kg/injection, schedule: Q01DX009 (ip), vehicle: saline) 89 % of control; (dose: 200.0 mg/kg/injection, schedule: Q01DX009 (ip), vehicle: saline) 105 % of control.

`O=C1Oc2ccccc2CC1C(=O)c1ccc([N+](=O)[O-])cc1` (stereo not drawn): the T/C under setting [1] is 99 % of control, the T/C under setting [2] is 106 % of control and the T/C under setting [3] was 103 % of control.

For `C=CCc1ccc(O)c(OC)c1`, the T/C (dose: 50.0 mg/kg/injection, schedule: Q01DX009 (ip), vehicle: other) is 101 % of control and the T/C (dose: 100.0 mg/kg/injection, schedule: Q01DX009 (ip), vehicle: other) was 107 % of control.

As for `COc1ccc(/C(C[P+](c2ccccc2)(c2ccccc2)c2ccccc2)=N/OC(C)(C)OC)cc1`, the T/C under setting [4] is 98 % of control; the T/C under setting [5] is 100 % of control; the T/C under setting [6] is 106 % of control; the T/C (dose: 50.0 mg/kg/injection, schedule: Q01DX009 (ip), vehicle: Klucel (hydroxypropylcellulose) (HPC)) was 101 % of control.

Consider `O=c1oc(-c2cccc(I)c2)ns1`, for which the T/C by setting is: (dose: 100.0 mg/kg/injection, schedule: Q01DX009 (ip), vehicle: Klucel (hydroxypropylcellulose) (HPC)) 111 % of control; (dose: 200.0 mg/kg/injection, schedule: Q01DX009 (ip), vehicle: Klucel (hydroxypropylcellulose) (HPC)) 114 % of control.

As to `NC(Cc1ccccc1)P(=O)(O)O` (stereo not drawn), the T/C (dose: 25.0 mg/kg/injection, schedule: Q01DX009 (ip), vehicle: suspension in saline) was 97 % of control; the T/C (dose: 50.0 mg/kg/injection, schedule: Q01DX009 (ip), vehicle: suspension in saline) was 99 % of control; the T/C (dose: 100.0 mg/kg/injection, schedule: Q01DX009 (ip), vehicle: suspension in saline) was 99 % of control; the T/C (dose: 200.0 mg/kg/injection, schedule: Q01DX009 (ip), vehicle: suspension in saline) is 97 % of control.

Take `N#Cc1ccc(OC(=O)Nc2c(Br)cc(Br)cc2Br)cc1`: the T/C is 93 % of control under setting [7], 99 % of control under setting [8] and 99 % of control under setting [9].

On to `COc1cc(CC2c3cc(OC)c(OC)cc3CC[N+]2(C)C)c(Oc2cc(CC3c4cc(OC)c(OC)cc4CC[N+]3(C)C)ccc2OC)cc1OC` (stereo not drawn), for which the T/C runs as follows: (dose: 1.56 mg/kg/injection, schedule: Q04DX003 (ip), vehicle: water) 109 % of control; (dose: 3.13 mg/kg/injection, schedule: Q04DX003 (ip), vehicle: water) 103 % of control.

For `COc1cc2c(c(OC)c1OC)-c1ccc(OC)c(=O)cc1[C@@H](NC(=O)C(F)(F)F)CC2`, the T/C is, setting by setting: (dose: 0.09 mg/kg/injection, schedule: Q01DX009 (ip), vehicle: Klucel (hydroxypropylcellulose) (HPC)) 121 % of control; (dose: 0.18 mg/kg/injection, schedule: Q01DX009 (ip), vehicle: Klucel (hydroxypropylcellulose) (HPC)) 123 % of control; (dose: 6.0 micrograms/kg/injection, schedule: Q01DX009 (ip), vehicle: Klucel (hydroxypropylcellulose) (HPC)) 101 % of control; (dose: 12.0 micrograms/kg/injection, schedule: Q01DX009 (ip), vehicle: Klucel (hydroxypropylcellulose) (HPC)) 111 % of control; (dose: 24.0 micrograms/kg/injection, schedule: Q01DX009 (ip), vehicle: Klucel (hydroxypropylcellulose) (HPC)) 112 % of control; (dose: 24.38 micrograms/kg/injection, schedule: Q01DX009 (ip), vehicle: Klucel (hydroxypropylcellulose) (HPC)) 120 % of control. For the same compound, the T/C is, setting by setting: (dose: 48.0 micrograms/kg/injection, schedule: Q01DX009 (ip), vehicle: Klucel (hydroxypropylcellulose) (HPC)) 121 % of control; (dose: 48.75 micrograms/kg/injection, schedule: Q01DX009 (ip), vehicle: Klucel (hydroxypropylcellulose) (HPC)) 120 % of control; (dose: 97.0 micrograms/kg/injection, schedule: Q01DX009 (ip), vehicle: Klucel (hydroxypropylcellulose) (HPC)) 119 % of control; (dose: 97.5 micrograms/kg/injection, schedule: Q01DX009 (ip), vehicle: Klucel (hydroxypropylcellulose) (HPC)) 118 % of control; (dose: 195.0 micrograms/kg/injection, schedule: Q01DX009 (ip), vehicle: Klucel (hydroxypropylcellulose) (HPC)) 122 % of control; (dose: 390.0 micrograms/kg/injection, schedule: Q01DX009 (ip), vehicle: Klucel (hydroxypropylcellulose) (HPC)) 155 % of control.

`S=c1[nH]c(N2CCOCC2)ncc1-c1ccccc1`: the T/C by setting is: (dose: 100.0 mg/kg/injection, schedule: Q04DX002 (ip), vehicle: saline with Tween-80) 99 % of control; (dose: 200.0 mg/kg/injection, schedule: Q04DX002 (ip), vehicle: saline with Tween-80) 99 % of control.

With `C=C1C=CC1=O`, the T/C was 100 % of control (dose: 0.63 mg/kg/injection, schedule: Q01DX009 (ip), vehicle: olive oil, sesame oil, peanut oil); 100 % of control and 91 % of control (dose: 1.25 mg/kg/injection, schedule: Q01DX009 (ip), vehicle: olive oil, sesame oil, peanut oil); 100 % of control and 93 % of control (dose: 2.5 mg/kg/injection, schedule: Q01DX009 (ip), vehicle: olive oil, sesame oil, peanut oil); 100 % of control and 104 % of control (dose: 5.0 mg/kg/injection, schedule: Q01DX009 (ip), vehicle: olive oil, sesame oil, peanut oil); 99 % of control and 103 % of control (dose: 10.0 mg/kg/injection, schedule: Q01DX009 (ip), vehicle: olive oil, sesame oil, peanut oil).

Turning to `C=C1Sc2ccccc2N1C`, the T/C reads like this: under setting [4], 111 % of control; under setting [5], 107 % of control and 114 % of control; under setting [6], 123 % of control.

Consider `CC1=C(C(=O)CC(=O)Nc2ccc(Cl)c(Cl)c2)Sc2ccccc2N1`, for which the T/C runs as follows: under setting [7], 96 % of control; under setting [8], 92 % of control; under setting [9], 99 % of control.

Regarding `[Cl][Cu][Cl]`, the T/C was 90 % of control (dose: 3.13 mg/kg/injection, schedule: Q04DX003 (ip), vehicle: saline) and 104 % of control (dose: 6.25 mg/kg/injection, schedule: Q04DX003 (ip), vehicle: saline).

Take `O=NN(CCF)C(=O)Oc1cc(Cl)c(Cl)cc1Cl`: the T/C by setting is: (dose: 12.0 mg/kg/injection, schedule: Q01DX005 (ip), vehicle: saline with Tween-80) 170 % of control; (dose: 25.0 mg/kg/injection, schedule: Q01DX005 (ip), vehicle: saline with Tween-80) 202 % of control.

As for `C[C@]12CC[C@H]([C@@]3(C)CC[C@H]4CC[C@]43O)[C@@H](CO)[C@@H]1CC[C@@H]2O`, the T/C under setting [7] is 104 % of control, the T/C under setting [8] is 98 % of control and the T/C under setting [9] was 91 % of control.

With `COc1ccc2c(CC(=O)O)cc(=O)oc2c1`, the T/C was 102 % of control under setting [7], 120 % of control under setting [8] and 99 % of control under setting [9].

Consider `[Ag].[Ag].[NH-]S(=O)(=O)c1ccc(N=Nc2cc(N=Nc3ccc(S([NH-])(=O)=O)cc3)c3c(NC(=O)C(Cl)Cl)cccc3c2OC(=O)C(Cl)Cl)cc1.[c-]1nccs1.[c-]1nccs1`, for which the T/C is 91 % of control (dose: 12.5 mg/kg/injection, schedule: Q01DX009 (ip), vehicle: saline with Tween-80); 100 % of control (dose: 25.0 mg/kg/injection, schedule: Q01DX009 (ip), vehicle: saline with Tween-80); 88 % of control and 93 % of control (dose: 50.0 mg/kg/injection, schedule: Q01DX009 (ip), vehicle: saline with Tween-80).

On to `S=c1nc[nH]c2cc3cn[nH]c3cc12`, for which the T/C under setting [1] was 94 % of control, the T/C under setting [2] is 96 % of control and the T/C under setting [3] is 92 % of control.

As to `CCCC(=O)c1cc(-c2cc(C(=O)CCC)nc(N)n2)nc(N)n1`, the T/C was 99 % of control under setting [7] and 107 % of control under setting [8].

As for `[Ni]=[Se]`, the T/C reads like this: (dose: 60.0 mg/kg/injection, schedule: Q01DX005 (ip), vehicle: saline) 97 % of control; (dose: 120.0 mg/kg/injection, schedule: Q01DX005 (ip), vehicle: saline) 96 % of control; (dose: 240.0 mg/kg/injection, schedule: Q01DX005 (ip), vehicle: saline) 97 % of control.
